# Active and inactive are the calls of the source.
# Experiments:
# Cytochrome P450 2C9 = Cytochrome P450 2C9 (Homo sapiens, UniProt P11712)
# [1] = microbe, parasite or virus in culture; assay type: functional; settings: Mycobacterium tuberculosis
# [2] = viability of HCT116 lacking mutant beta-catenin – cell-based, human colon tumor, dose response (AID 1045); assay type: functional;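 further: HCT116 colon tumor cells with beta catenin knocked out; cells exposed to compound for 60 hours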
# [3] = viability of PTEN-deleted HCT116 cells – cell-based, HCT116 PTEN knockout, dose response (AID 1047); assay type: functional;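 further: HCT116 colon tumor cells with PTEN knocked out; cells exposed to compound for 60 hours before readout; potency for loss of cell viability measured by luminescence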
# [4] = biological target: T1, Calpain-2 catalytic subunit (Sus scrofa, UniProt P43367); assay: m-calpain protease blockers, concentration series – biochemical, fluorogenic peptide substrate, dose response (AID 1420); assay type: functional
# T1 sequence (P43367 whole entry): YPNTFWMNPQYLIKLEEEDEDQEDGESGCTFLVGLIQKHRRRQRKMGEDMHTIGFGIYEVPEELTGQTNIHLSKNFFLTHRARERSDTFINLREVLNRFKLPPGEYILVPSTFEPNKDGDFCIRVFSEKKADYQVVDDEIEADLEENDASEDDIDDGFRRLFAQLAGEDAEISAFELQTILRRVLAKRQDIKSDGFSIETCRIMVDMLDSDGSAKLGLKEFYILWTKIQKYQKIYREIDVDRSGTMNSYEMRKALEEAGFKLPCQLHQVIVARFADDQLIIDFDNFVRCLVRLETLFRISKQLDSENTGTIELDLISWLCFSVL
# Cytochrome P450 2D6 = Cytochrome P450 2D6 (Homo sapiens, UniProt P10635);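 further: CYP2D6 member of a cytochrome P450 panel assay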
# [5] = biological target: T2, Heat shock factor protein 1 (Mus musculus, UniProt P38532); assay: decrease of HSF1-responsive luciferase luminescence – cell-based, NIH3T3, dose retest, confirmation (AID 2382); assay type: functional;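 further: NIH3T3 fibroblasts with HSF1-driven luciferase reporter stressed by proteasome inhibitor MG132; luminescence from HSF1-driven luciferase expression after 8 hours of MG132 stress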
# T2 sequence (P38532 whole entry): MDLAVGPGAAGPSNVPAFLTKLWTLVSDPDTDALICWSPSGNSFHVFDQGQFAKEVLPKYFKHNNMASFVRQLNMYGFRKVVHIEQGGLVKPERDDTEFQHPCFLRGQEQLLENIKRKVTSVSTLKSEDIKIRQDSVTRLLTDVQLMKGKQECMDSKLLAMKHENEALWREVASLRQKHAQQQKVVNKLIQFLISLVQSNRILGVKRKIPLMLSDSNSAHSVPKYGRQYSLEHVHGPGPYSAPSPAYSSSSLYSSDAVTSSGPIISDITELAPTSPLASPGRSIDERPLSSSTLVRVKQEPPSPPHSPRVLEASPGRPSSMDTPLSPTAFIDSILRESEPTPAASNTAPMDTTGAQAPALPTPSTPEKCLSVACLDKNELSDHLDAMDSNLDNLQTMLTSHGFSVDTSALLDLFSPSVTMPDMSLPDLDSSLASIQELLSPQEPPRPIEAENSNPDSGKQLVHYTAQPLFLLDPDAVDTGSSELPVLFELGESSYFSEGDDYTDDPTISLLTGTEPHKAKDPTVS
# [6] = loss of viability in HepG2 cells – cell-based, CellTiter-Glo, cherry-picked, cytotoxicity control for Shn3 inhibitor project, dose response (AID 624134); assay type: functional
# [7] = non-specific 3'UTR reporter inhibition in Clone20-Shn3RL – cell-based, Renilla luciferase, cherry-picked, counter-screen for Shn3 inhibitor project, dose response (AID 624133); assay type: functional
# [8] = reduction of Shn3 3'UTR-driven luciferase in osteoblasts – cell-based, Clone20 osteoblasts, firefly luciferase, cherry-picked, dose response (AID 624132); assay type: functional;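 further: firefly luciferase luminescence from reporter carrying the Shn3 3'UTR in osteoblasts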
# Prothrombin = Prothrombin (Homo sapiens, UniProt P00734); assay: Thrombin 1536 HTS Dose Response Confirmation. [Related pubchem assays: 1046 (Thrombin 1536 HTS; hits were confirmed in this assay)]; assay type: functional
# cells [9] = assay type: functional, cell-based
# INS1 = assay: INS-1E survival protection against cytokine death – cell-based, luminescence, retest, dose response (AID 449756); assay type: functional; settings: Rattus norvegicus;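 further: cell death triggered by IL-1 beta plus TNF-alpha plus IFN-gamma mixture; protective hits raise ATP signal compared with cytokine alone wells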
# cells [10] = assay type: functional, cell-based; remark: listed apart in the source
# Nonstructural protein 1 = Nonstructural protein 1 (Influenza A virus, UniProt Q194T2); assay type: functional, Influenza A virus (A/California/07/2009(H1N1))
# Streptococcus = assay: GAS UMAA2166 growth inhibition – luminescence, BacTiterGlo, counter-screen for streptokinase expression inhibitor project, dose response (AID 1915); assay type: functional, organism-based;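 further: potency for reduction of bacterial viability or growth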
# [11] = biological target: T2, Heat shock factor protein 1; assay: enhancement of HSF1-driven luciferase signal – cell-based, NIH3T3, luminescence, dose retest, confirmation (AID 435004); assay type: functional;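 further: stress induced by proteasome inhibitor MG132 added 30 min after compound; luciferase reporter driven by HSF1 response element in NIH3T3 cells; actives raise luminescence as potentiators of the MG132 stress response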
# Streptokinase A = biological target: T3, Streptokinase A (Streptococcus pyogenes serotype M1, UniProt P10520); assay: viability-normalized secreted streptokinase activity reduction – plasminogen activation absorbance, OD405, dose response (AID 1914); assay type: functional, Streptococcus pyogenes M1 GAS;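 further: secreted streptokinase activity via plasminogen activation per viability signal from cell pellet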
# T3 sequence (P10520 whole entry): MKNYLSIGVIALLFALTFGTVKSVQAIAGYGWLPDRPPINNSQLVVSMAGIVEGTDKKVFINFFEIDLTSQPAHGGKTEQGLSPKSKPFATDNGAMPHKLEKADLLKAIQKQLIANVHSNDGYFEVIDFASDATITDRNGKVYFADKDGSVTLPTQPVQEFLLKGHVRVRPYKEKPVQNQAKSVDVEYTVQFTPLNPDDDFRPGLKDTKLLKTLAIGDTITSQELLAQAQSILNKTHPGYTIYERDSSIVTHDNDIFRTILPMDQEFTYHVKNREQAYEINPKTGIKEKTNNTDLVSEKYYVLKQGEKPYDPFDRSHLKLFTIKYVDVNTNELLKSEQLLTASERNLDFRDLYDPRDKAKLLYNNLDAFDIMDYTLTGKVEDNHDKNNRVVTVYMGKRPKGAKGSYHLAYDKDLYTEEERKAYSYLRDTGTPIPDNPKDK
# [12] = system: Streptococcus sp. 'group A'; assay: Streptococcus pyogenes SK(-)GAS viability under kanamycin – luminescence, BacTiterGlo, confirmation, counter-screen for streptokinase expression inhibitor project, dose response (AID 1900); assay type: functional, organism-based
# [13] = viability of uninfected HEp-2 cells – cell-based, HTS, cytotoxicity control for RSV inhibitor project, dose response (AID 2410); assay type: functional; settings: human respiratory syncytial virus
# Chain of Cytochrome P450 2D6 (P10635 whole entry): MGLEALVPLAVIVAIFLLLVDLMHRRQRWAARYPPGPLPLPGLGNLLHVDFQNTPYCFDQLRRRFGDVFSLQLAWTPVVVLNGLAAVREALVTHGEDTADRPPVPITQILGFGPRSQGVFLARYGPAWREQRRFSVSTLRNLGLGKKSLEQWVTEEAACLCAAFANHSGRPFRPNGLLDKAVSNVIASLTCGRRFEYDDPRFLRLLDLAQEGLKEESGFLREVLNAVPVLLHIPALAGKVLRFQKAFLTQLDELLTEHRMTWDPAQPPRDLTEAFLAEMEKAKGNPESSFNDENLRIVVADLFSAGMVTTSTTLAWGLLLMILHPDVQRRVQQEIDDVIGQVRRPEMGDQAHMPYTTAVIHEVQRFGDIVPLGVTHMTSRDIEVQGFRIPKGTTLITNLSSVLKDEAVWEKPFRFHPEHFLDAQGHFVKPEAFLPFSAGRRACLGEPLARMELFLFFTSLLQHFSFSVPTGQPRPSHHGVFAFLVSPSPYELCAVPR
# Chain of Cytochrome P450 2C9 (P11712 whole entry): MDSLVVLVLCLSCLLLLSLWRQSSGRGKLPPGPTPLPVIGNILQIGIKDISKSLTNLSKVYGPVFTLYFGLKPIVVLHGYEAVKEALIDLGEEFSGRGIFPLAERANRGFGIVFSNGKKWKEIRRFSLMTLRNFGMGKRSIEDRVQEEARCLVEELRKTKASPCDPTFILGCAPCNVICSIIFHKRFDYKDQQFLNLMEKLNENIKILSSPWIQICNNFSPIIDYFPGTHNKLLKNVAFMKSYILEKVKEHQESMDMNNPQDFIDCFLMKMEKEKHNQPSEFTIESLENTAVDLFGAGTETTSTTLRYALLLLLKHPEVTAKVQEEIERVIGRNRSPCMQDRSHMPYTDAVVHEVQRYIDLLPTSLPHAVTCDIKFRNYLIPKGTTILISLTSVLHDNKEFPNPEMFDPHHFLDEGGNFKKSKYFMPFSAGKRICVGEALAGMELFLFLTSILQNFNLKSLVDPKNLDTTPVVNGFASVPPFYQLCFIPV
# Chain of Nonstructural protein 1 (Q194T2 whole entry): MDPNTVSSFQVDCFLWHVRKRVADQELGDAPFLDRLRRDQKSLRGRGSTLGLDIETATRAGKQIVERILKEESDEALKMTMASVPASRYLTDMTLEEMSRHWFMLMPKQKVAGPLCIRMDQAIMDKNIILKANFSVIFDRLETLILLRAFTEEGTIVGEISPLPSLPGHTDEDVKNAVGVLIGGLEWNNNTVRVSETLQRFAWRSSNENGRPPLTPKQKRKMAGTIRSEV
smiles,measurement,setting,value
O=S1(=O)N(CCN2CC=C(c3c[nH]c4cc(F)ccc34)CC2)c2cccc3c2N1CCC3,AC50,Cytochrome P450 2C9,25.1 µM (inconclusive)
same,CC50,[1],> 40 µM (active)
N#Cc1ccc(/C=C/C(=O)c2ccco2)cc1,EC50,[2],17.2 µM (active)
same,EC50,[3],16.6 µM (active)
Cc1cccc(N/C=C/C(=C(C#N)C#N)N(C)C)c1,IC50,[4],15.6 µM (not active)
O=C(c1ccco1)N1CCC2(CC1)CN(Cc1ccncc1)C2,AC50,Cytochrome P450 2D6,12.6 µM (inconclusive)
O=C(CCN1C(=O)c2ccccc2C1=O)NC(=S)Nc1cccc(Cl)c1,AC50,Cytochrome P450 2D6,0.0447 µM (inconclusive)
CCOC(=O)c1c(CSCc2ccccc2)oc2ccc(O)c(CN(C)C)c12,EC50,[5],> 195 µM (not active)
same,AC50,[6],22.2 µM (active)
same,AC50,[7],10.7 µM (active)
same,AC50,[8],9.79 µM (active)
COc1cccc([C@@H]2Oc3ccc(OC)cc3C(=O)[C@H]2O)c1,AC50,Cytochrome P450 2D6,3.16 µM (inconclusive)
Cc1ccc(S(=O)(=O)CC(=O)Nc2c(C)n(C)n(-c3ccccc3)c2=O)cc1,IC50,Prothrombin,3.58 µM (active)
COc1cnc(-c2ccccn2)nc1N(C)C,EC50,cells [9],8.34 µM (active)
same,AC50,INS1,8.4 µM (active)
same,EC50,cells [10],214 µM (active)
same,IC50,Nonstructural protein 1,1.92 µM (active)
CCn1c(-c2ccccc2Cl)nn(CC(=O)Nc2cc(Cl)ccc2Cl)c1=S,AC50,Cytochrome P450 2D6,25.1 µM (inconclusive)
same,AC50,Cytochrome P450 2C9,25.1 µM (inconclusive)
O=C1OC(Nc2ccc(F)c([N+](=O)[O-])c2)c2ccccc21 (stereo not drawn),IC50,Prothrombin,> 50 µM (not active)
Clc1ccccc1-c1nccc(NCc2ccccc2)n1,AC50,Cytochrome P450 2D6,39.8 µM (inconclusive)
CCCC(=O)n1nc(-c2ccco2)nc1N,IC50,Prothrombin,1.28 µM (active)
COc1ccc(C(C)C)cc1S(=O)(=O)Nc1ccncc1,IC50,Prothrombin,> 50 µM (not active)
O=C1c2cccc3c([N+](=O)[O-])ccc(c23)C(=O)N1O,EC50,Streptococcus,15.8 µM (active)
same,EC50,[11],244 µM (active)
same,CC50,[1],17.8 µM (active)
same,EC50,Streptokinase A,> 150 µM (not active)
same,EC50,[12],999 nM (active)
CCC(=O)Nc1ccc(C(=O)CSc2nc3ccccc3cc2CC)cc1,IC50,Prothrombin,> 50 µM (not active)
Cn1nc(-c2ccc(Cl)cc2)c2cc(C(=O)N3CCN(c4ccccn4)CC3)sc21,AC50,[6],> 70 µM (inactive)
same,AC50,[7],28.6 µM (active)
same,AC50,[8],4.02 µM (active)
same,CC50,[13],3.7 µM (active)

# — ChEMBL document CHEMBL1201862, “PubChem BioAssay data set” (2004)
